From US10645928B2, “Pesticidally active polycyclic derivatives with sulfur containing substituents” (Syngenta Participations AG, priority 2014, dated 2020)

Legend:
Assay type in all cases: in vivo
[1] = tested on: Spodoptera littoralis (Egyptian Cotton Leaf Worm); assay: Example B18: Spodoptera littoralis, compound in agar absorbed by lettuce roots, mortality, anti-feedant effect and growth inhibition; settings: 144 h, test rate of 12.5 ppm, uptake by lettuce roots, Spodoptera eggs, 6 days after infestation, read-out: effect in at least one of the three categories (mortality, anti-feeding, or growth inhibition)
From the text: Test compounds were applied by pipette from 10,000 ppm DMSO stock solutions into 24-well plates and mixed with agar. Lettuce seeds were placed onto the agar and the multi well plate was closed by another plate which contained also agar. After 7 days the compound was absorbed by the roots and the lettuce grew into the lid plate. The lettuce leaves were then cut off into the lid plate. Spodoptera eggs were pipetted through a plastic stencil onto a humid gel blotting paper and the lid plate was closed with it. The samples were assessed for mortality, anti-feedant effect and growth inhibition in comparison to untreated samples 6 days after infestation.

[2] = tested on: Spodoptera littoralis (Egyptian Cotton Leaf Worm); assay: Example B16: Spodoptera littoralis, sprayed cotton leaf discs, mortality; settings: foliar, 72 h, application rate of 200 ppm, L1 larvae, 3 days after infestation
Experimental: (§1) Cotton leaf discs were placed onto agar in 24-well microtiter plates and sprayed with aqueous test solutions prepared from 10,000 ppm DMSO stock solutions. After drying the leaf discs were infested with five L1 larvae. The samples were assessed for mortality 3 days after infestation.

[3] = tested on: Diabrotica balteata (Corn Root Worm); assay: Example B2: Diabrotica balteata, sprayed maize sprouts, mortality and growth inhibition; settings: 96 h, application rate of 200 ppm, L2 larvae, 4 days after infestation, read-out: effect in at least one of the two categories (mortality or growth inhibition)
Experimental: (§2) Maize sprouts placed onto an agar layer in 24-well microtiter plates were treated with aqueous test solutions prepared from 10,000 ppm DMSO stock solutions by spraying. After drying, the plates were infested with L2 larvae (6 to 10 per well). The samples were assessed for mortality and growth inhibition in comparison to untreated samples 4 days after infestation.

[4] = tested on: Aedes aegypti (Yellow Fever Mosquito); assay: Example B23: Aedes aegypti, dry deposits in 12 well tissue culture plates, control; settings: application rate of 200 ppm in ethanol, adult females, after 48 h and/or 24 h
Experimental: Test solutions, at an application rate of 200 ppm in ethanol, were applied to 12 well tissue culture plates. Once the deposits were dry, five, two to five day old adult female Aedes aegypti were added to each well, and sustained with a 10% sucrose solution in a cotton wool plug. Assessment of knockdown was made one hour after introduction, and mortality was assessed at 24 and 48 hours after introduction.

[5] = tested on: Diabrotica balteata (Corn Root Worm); assay: Example B3: Diabrotica balteata, sprayed maize sprouts, mortality; settings: 96 h, application rate of 200 ppm, L2 larvae, 4 days after infestation
Experimental: as §2, with “mortality” for “mortality and growth inhibition in comparison to untreated samples”

[6] = tested on: Euschistus heros (Neotropical Brown Stink Bug); assay: Example B5: Euschistus heros, sprayed soybean leaves, mortality; settings: 120 h, application rate of 200 ppm, N2 nymphs, 5 days after infestation
Experimental: (§3) Soybean leaves on agar in 24-well microtiter plates were sprayed with aqueous test solutions prepared from 10,000 ppm DMSO stock solutions. After drying the leaves were infested with N2 nymphs. The samples were assessed for mortality 5 days after infestation.

[7] = tested on: Euschistus heros (Neotropical Brown Stink Bug); assay: Example B6: Euschistus heros, sprayed soybean leaves, mortality and growth inhibition; settings: 120 h, application rate of 200 ppm, N2 nymphs, 5 days after infestation, read-out: effect in at least one of the two categories (mortality or growth inhibition)
Experimental: as §3, with “mortality and growth inhibition in comparison to untreated samples” for “mortality”

[8] = tested on: Plutella xylostella (Diamond Back Moth); assay: Example B12: Plutella xylostella, treated artificial diet, mortality; settings: 120 h, application rate of 200 ppm, L2 larvae, 5 days after infestation
Experimental: (§4) 24-well microtiter plates with artificial diet were treated with aqueous test solutions prepared from 10,000 ppm DMSO stock solutions by pipetting. After drying, the plates were infested with L2 larvae (10 to 15 per well). The samples were assessed for mortality 5 days after infestation.

[9] = tested on: Spodoptera littoralis (Egyptian Cotton Leaf Worm); assay: Example B19: Spodoptera littoralis, compound in agar absorbed by lettuce roots, anti-feedant effect; settings: 144 h, test rate of 12.5 ppm, uptake by lettuce roots, Spodoptera eggs, 6 days after infestation, read-out: anti-feeding
From the text: Test compounds were applied by pipette prepared from 10,000 ppm DMSO stock solutions into 24-well plates and mixed with agar. Lettuce seeds were placed onto the agar and the multi well plate was closed by another plate which contained also agar. After 7 days the compound was absorbed by the roots and the lettuce grew into the lid plate. The lettuce leaves were then cut off into the lid plate. Spodoptera eggs were pipetted through a plastic stencil onto a humid gel blotting paper and the lid plate was closed with it. The samples were assessed for anti-feedant effect in comparison to untreated samples 6 days after infestation.

[10] = tested on: Plutella xylostella (Diamond Back Moth); assay: Example B13: Plutella xylostella, treated artificial diet, mortality and growth inhibition; settings: 120 h, application rate of 200 ppm, L2 larvae, 5 days after infestation, read-out: effect in at least one of the two categories (mortality or growth inhibition)
Experimental: as §4, with “mortality and growth inhibition in comparison to untreated samples” for “mortality”

[11] = tested on: Spodoptera littoralis (Egyptian Cotton Leaf Worm); assay: Example B20: Spodoptera littoralis, compound in agar absorbed by lettuce roots, mortality; settings: 144 h, test rate of 12.5 ppm, uptake by lettuce roots, Spodoptera eggs, 6 days after infestation
From the text: Test compounds were applied by pipette prepared from 10,000 ppm DMSO stock solutions into 24-well plates and mixed with agar. Lettuce seeds were placed onto the agar and the multi well plate was closed by another plate which contained also agar. After 7 days the compound was absorbed by the roots and the lettuce grew into the lid plate. The lettuce leaves were then cut off into the lid plate.
Spodoptera eggs were pipetted through a plastic stencil onto a humid gel blotting paper and the lid plate was closed with it. The samples were assessed for mortality 6 days after infestation.

[12] = tested on: Spodoptera littoralis (Egyptian Cotton Leaf Worm); assay: Example B17: Spodoptera littoralis, sprayed cotton leaf discs, mortality, anti-feeding effect and growth inhibition; settings: foliar, 72 h, application rate of 200 ppm, L1 larvae, 3 days after infestation, read-out: control (at least one of mortality, anti-feedant effect, growth inhibition)
Experimental: (§5) Cotton leaf discs were placed onto agar in 24-well microtiter plates and sprayed with aqueous test solutions prepared from 10,000 ppm DMSO stock solutions. After drying the leaf discs were infested with five L1 larvae. The samples were assessed for mortality, anti-feeding effect, and growth inhibition in comparison to untreated samples 3 days after infestation. Control of Spodoptera littoralis by a test sample is given when at least one of the categories mortality, anti-feedant effect, and growth inhibition is higher than the untreated sample.

[13] = tested on: Spodoptera littoralis (Egyptian Cotton Leaf Worm); assay: Example B14: Spodoptera littoralis, sprayed cotton leaf discs, anti-feeding effect; settings: foliar, 72 h, application rate of 200 ppm, L1 larvae, 3 days after infestation
Experimental: as §5, with “for” for “for mortality,”, “effect” for “effect, and growth inhibition”, “when” for “when at least one of”, “the” for “the categories mortality,”

[14] = tested on: Frankliniella occidentalis (Western Flower Thrips); assay: Example B7: Frankliniella occidentalis, sprayed sunflower leaf discs, mortality; settings: foliar, 168 h, application rate of 200 ppm, population of mixed ages, 7 days after infestation
Experimental: as §1, with “Sunflower” for “Cotton”, “on” for “onto”, “10,000” for “10,000 ppm”, “a Frankliniella population of mixed ages.” for “five L1 larvae.”, “7” for “3”

[15] = tested on: Myzus persicae (Green Peach Aphid); assay: Example B8: Myzus persicae, sprayed sunflower leaf discs, mortality; settings: foliar, 144 h, application rate of 200 ppm, leaf disc spray, aphid population of mixed ages, 6 days after infestation
Experimental: Sunflower leaf discs were placed onto agar in a 24-well microtiter plate and sprayed with aqueous test solutions prepared from 10,000 ppm DMSO stock solutions. After drying, the leaf discs were infested with an aphid population of mixed ages. The samples were assessed for mortality 6 days after infestation.

[16] = tested on: Plutella xylostella (Diamond Back Moth); assay: Example B10: Plutella xylostella, treated artificial diet, growth inhibition; settings: 120 h, application rate of 200 ppm, L2 larvae, 5 days after infestation
Experimental: as §4, with “growth inhibition in comparison to untreated samples” for “mortality”, “infestation. Control of Plutella xylostella by a test sample is given when the growth inhibition is higher than the untreated sample.” for “infestation.”

CCS(=O)(=O)c1cc(-c2ccc(OC(F)(F)F)cc2)cnc1-c1cn2cnc(C(F)(F)F)cc2n1 [Compound P12]
≥ 80%: percent effect (mortality, anti-feeding or growth inhibition) at 12.5 ppm [1] | mortality at 200 ppm [2] | percent effect (mortality or growth inhibition) at 200 ppm [3] | pest or weed control at 200 ppm [4] | mortality at 200 ppm [5] | mortality at 200 ppm [6] | percent effect (mortality or growth inhibition) at 200 ppm [7] | mortality at 200 ppm [8] | pest or weed control at 12.5 ppm [9] | percent effect (mortality or growth inhibition) at 200 ppm [10] | mortality at 12.5 ppm [11] | percent control (mortality, anti-feedant effect or growth inhibition) at 200 ppm [12] | pest or weed control at 200 ppm [13]

CCS(=O)(=O)c1cc(-c2ccc(C(F)(F)F)cc2)ccc1-c1cn2cnc(C(F)(F)F)cc2n1 [Compound P2, 2-[2-ethylsulfonyl-4-[4-(trifluoromethyl)phenyl]phenyl]-7-(trifluoromethyl)imidazo[1,2-c]pyrimidine]
≥ 80%: mortality at 200 ppm [2] | percent effect (mortality or growth inhibition) at 200 ppm [3] | pest or weed control at 200 ppm [4] | mortality at 200 ppm [5] | mortality at 200 ppm [8] | percent effect (mortality or growth inhibition) at 200 ppm [10] | percent control (mortality, anti-feedant effect or growth inhibition) at 200 ppm [12] | pest or weed control at 200 ppm [13]

CCS(=O)(=O)c1cc(-c2ccc(C(F)(F)F)cc2)cnc1-c1cn2cnc(C(F)(F)F)cc2n1 [Compound P6, 2-[3-ethylsulfonyl-5-[4-(trifluoromethyl)phenyl]-2-pyridyl]-7-(trifluoromethyl)imidazo[1,2-c]pyrimidine]
≥ 80%: percent effect (mortality, anti-feeding or growth inhibition) at 12.5 ppm [1] | mortality at 200 ppm [2] | percent effect (mortality or growth inhibition) at 200 ppm [3] | pest or weed control at 200 ppm [4] | mortality at 200 ppm [5] | mortality at 200 ppm [6] | percent effect (mortality or growth inhibition) at 200 ppm [7] | mortality at 200 ppm [8] | pest or weed control at 12.5 ppm [9] | percent effect (mortality or growth inhibition) at 200 ppm [10] | mortality at 12.5 ppm [11] | percent control (mortality, anti-feedant effect or growth inhibition) at 200 ppm [12] | pest or weed control at 200 ppm [13]

CCS(=O)(=O)c1cc(-c2ccc(Cl)cc2)ccc1-c1cn2cnc(C(F)(F)F)cc2n1 [Compound P3]
≥ 80%: mortality at 200 ppm [2] | percent effect (mortality or growth inhibition) at 200 ppm [3] | mortality at 200 ppm [5] | percent control (mortality, anti-feedant effect or growth inhibition) at 200 ppm [12] | pest or weed control at 200 ppm [13]

CCS(=O)(=O)c1cc(-c2ccc(F)cc2F)cnc1-c1cn2cnc(C(F)(F)F)cc2n1 [Compound P11]
≥ 80%: percent effect (mortality, anti-feeding or growth inhibition) at 12.5 ppm [1] | mortality at 200 ppm [2] | percent effect (mortality or growth inhibition) at 200 ppm [3] | mortality at 200 ppm [14] | mortality at 200 ppm [5] | mortality at 200 ppm [15] | mortality at 200 ppm [6] | percent effect (mortality or growth inhibition) at 200 ppm [7] | mortality at 200 ppm [8] | pest or weed control at 12.5 ppm [9] | percent effect (mortality or growth inhibition) at 200 ppm [10] | mortality at 12.5 ppm [11] | percent control (mortality, anti-feedant effect or growth inhibition) at 200 ppm [12] | pest or weed control at 200 ppm [13]

CCS(=O)(=O)c1cc(-n2ccc(C(F)(F)F)n2)ccc1-c1cn2cnc(C(F)(F)F)cc2n1 [Compound P1, 2-[2-ethylsulfonyl-4-[3-(trifluoromethyl)pyrazol-1-yl]phenyl]-7-(trifluoromethyl)imidazo[1,2-c]pyrimidine]
≥ 80%: percent effect (mortality, anti-feeding or growth inhibition) at 12.5 ppm [1] | mortality at 200 ppm [2] | percent effect (mortality or growth inhibition) at 200 ppm [3] | pest or weed control at 200 ppm [4] | mortality at 200 ppm [5] | mortality at 200 ppm [15] | mortality at 200 ppm [6] | percent effect (mortality or growth inhibition) at 200 ppm [7] | mortality at 200 ppm [8] | pest or weed control at 12.5 ppm [9] | percent effect (mortality or growth inhibition) at 200 ppm [10] | mortality at 12.5 ppm [11] | percent control (mortality, anti-feedant effect or growth inhibition) at 200 ppm [12] | inhibition at 200 ppm [16] | pest or weed control at 200 ppm [13]
